Laboratory results: PMC9927415, “Tyrosine Kinase Inhibitors Display Potent Activity against Cryptosporidium parvum” (Microbiology Spectrum, 2022)

How the values were obtained:
Test in all cases: KINOMEscan competitive binding, whole panel
panel of 203 kinases [1] = target: T1, panel of 203 kinases (Homo sapiens, UniProt Q9Y243); conditions: 10 µM, n=1; kinase AKT3; read-out: Percent inhibition AKT3
T1 construct: purchased DiscoverX (KINOMEscan)
Text: (§1) The kinases were expressed as fusions to T7 bacteriophage. This is a sensitive, competitive binding assay where test compounds were used to displace immobilized ATP-site binding probe ligands from kinases of interest. The amount of kinase that remained bound to the immobilized probe ligands on the solid support was quantified. Percentage inhibition data were was plotted on kinome trees using the web-based tool KinMap (http://www.kinhub.org/kinmap) ([60]).

panel of 203 kinases [2] = target: T2, panel of 203 kinases (Homo sapiens, UniProt Q8IWQ3); conditions: 10 µM, n=1; kinase BRSK2; read-out: Percent inhibition BRSK2
T2 construct: purchased DiscoverX (KINOMEscan)
T2 sequence (Q8IWQ3 1-736): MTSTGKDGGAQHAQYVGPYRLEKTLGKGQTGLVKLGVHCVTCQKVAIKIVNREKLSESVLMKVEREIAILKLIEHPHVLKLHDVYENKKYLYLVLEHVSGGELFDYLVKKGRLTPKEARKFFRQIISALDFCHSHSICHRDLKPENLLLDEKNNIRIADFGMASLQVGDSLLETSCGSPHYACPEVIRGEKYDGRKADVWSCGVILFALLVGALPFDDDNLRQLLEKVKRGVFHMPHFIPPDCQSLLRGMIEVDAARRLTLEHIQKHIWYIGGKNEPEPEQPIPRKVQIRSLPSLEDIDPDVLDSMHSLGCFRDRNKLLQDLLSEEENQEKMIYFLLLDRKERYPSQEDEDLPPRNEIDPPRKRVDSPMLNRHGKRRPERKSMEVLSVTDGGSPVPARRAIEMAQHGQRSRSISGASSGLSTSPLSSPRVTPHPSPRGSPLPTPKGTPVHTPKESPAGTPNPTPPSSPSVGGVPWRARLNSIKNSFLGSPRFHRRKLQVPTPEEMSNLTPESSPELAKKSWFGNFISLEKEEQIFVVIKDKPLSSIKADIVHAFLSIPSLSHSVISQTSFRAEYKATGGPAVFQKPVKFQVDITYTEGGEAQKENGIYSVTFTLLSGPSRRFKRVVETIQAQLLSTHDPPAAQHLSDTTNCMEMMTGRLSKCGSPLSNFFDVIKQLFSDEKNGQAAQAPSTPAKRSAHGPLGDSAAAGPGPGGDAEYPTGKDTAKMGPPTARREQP
Text: as §1

panel of 203 kinases [3] = target: T3, panel of 203 kinases (Homo sapiens, UniProt P22607); conditions: 10 µM, n=1; kinase FGFR3; read-out: Percent inhibition FGFR3
T3 construct: purchased DiscoverX (KINOMEscan)
Text: as §1

panel of 203 kinases [4] = target: T4, panel of 203 kinases (Homo sapiens, UniProt Q15759); conditions: 10 µM, n=1; kinase p38-beta; read-out: Percent inhibition p38-beta
T4 construct: purchased DiscoverX (KINOMEscan)
Text: as §1

panel of 203 kinases [5] = target: T5, panel of 203 kinases (Homo sapiens, UniProt P29323); conditions: 10 µM, n=1; kinase EPHB2; read-out: Percent inhibition EPHB2
T5 construct: purchased DiscoverX (KINOMEscan)
T5 sequence (P29323 19-1055): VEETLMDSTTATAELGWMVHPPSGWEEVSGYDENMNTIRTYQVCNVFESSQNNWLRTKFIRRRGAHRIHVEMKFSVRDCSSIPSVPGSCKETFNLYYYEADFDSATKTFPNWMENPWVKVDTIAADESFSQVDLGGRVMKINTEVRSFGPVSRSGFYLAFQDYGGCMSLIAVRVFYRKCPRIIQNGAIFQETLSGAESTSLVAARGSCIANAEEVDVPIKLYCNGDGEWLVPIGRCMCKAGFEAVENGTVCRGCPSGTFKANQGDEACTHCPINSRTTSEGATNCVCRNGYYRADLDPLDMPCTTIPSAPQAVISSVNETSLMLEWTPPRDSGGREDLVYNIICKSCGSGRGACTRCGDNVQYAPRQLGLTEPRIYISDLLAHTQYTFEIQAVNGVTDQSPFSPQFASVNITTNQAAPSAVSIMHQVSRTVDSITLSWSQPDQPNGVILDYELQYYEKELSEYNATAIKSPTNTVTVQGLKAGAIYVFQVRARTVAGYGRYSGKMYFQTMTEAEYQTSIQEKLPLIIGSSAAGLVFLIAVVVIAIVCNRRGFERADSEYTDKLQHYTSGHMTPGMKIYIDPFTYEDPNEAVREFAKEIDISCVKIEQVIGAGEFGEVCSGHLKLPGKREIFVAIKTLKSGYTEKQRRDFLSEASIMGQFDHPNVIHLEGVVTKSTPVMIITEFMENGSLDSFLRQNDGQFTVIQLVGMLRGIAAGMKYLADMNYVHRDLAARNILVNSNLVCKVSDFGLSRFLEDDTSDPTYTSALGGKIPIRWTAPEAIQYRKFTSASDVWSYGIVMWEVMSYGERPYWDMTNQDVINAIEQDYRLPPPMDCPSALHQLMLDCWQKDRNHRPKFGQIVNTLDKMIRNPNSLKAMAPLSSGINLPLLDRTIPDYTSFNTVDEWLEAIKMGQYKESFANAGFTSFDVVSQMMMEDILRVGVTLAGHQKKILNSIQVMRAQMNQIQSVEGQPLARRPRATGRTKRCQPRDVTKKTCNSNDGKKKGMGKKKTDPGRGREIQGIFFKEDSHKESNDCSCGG
Text: as §1

panel of 203 kinases [6] = target: T6, panel of 203 kinases (Homo sapiens, UniProt Q9UM73); conditions: 10 µM, n=1; kinase ALK; read-out: Percent inhibition ALK
T6 construct: purchased DiscoverX (KINOMEscan)
Text: as §1

T1 sequence (Q9Y243 whole entry): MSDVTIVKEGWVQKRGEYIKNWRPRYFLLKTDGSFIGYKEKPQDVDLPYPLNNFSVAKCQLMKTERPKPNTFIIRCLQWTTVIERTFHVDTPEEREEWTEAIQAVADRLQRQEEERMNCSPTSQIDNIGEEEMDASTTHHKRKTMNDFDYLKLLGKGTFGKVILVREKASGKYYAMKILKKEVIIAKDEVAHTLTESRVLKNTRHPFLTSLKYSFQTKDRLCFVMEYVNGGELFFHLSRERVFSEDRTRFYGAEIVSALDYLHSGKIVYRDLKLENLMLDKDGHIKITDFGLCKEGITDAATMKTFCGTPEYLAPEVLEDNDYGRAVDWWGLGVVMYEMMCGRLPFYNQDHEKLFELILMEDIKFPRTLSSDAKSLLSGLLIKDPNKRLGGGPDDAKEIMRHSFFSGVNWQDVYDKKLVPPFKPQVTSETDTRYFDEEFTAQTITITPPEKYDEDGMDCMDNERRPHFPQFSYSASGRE
T4 sequence (Q15759 whole entry): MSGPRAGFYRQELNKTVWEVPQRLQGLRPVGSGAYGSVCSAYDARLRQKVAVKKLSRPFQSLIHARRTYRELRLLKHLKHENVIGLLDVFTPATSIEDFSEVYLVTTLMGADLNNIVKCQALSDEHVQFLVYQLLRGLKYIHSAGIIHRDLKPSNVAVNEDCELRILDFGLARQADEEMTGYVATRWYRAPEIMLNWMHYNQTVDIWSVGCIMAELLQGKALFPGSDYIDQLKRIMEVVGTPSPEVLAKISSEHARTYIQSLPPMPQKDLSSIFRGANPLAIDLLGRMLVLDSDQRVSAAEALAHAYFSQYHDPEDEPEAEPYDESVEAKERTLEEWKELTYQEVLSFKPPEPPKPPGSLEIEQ
T3 sequence (P22607 23-806): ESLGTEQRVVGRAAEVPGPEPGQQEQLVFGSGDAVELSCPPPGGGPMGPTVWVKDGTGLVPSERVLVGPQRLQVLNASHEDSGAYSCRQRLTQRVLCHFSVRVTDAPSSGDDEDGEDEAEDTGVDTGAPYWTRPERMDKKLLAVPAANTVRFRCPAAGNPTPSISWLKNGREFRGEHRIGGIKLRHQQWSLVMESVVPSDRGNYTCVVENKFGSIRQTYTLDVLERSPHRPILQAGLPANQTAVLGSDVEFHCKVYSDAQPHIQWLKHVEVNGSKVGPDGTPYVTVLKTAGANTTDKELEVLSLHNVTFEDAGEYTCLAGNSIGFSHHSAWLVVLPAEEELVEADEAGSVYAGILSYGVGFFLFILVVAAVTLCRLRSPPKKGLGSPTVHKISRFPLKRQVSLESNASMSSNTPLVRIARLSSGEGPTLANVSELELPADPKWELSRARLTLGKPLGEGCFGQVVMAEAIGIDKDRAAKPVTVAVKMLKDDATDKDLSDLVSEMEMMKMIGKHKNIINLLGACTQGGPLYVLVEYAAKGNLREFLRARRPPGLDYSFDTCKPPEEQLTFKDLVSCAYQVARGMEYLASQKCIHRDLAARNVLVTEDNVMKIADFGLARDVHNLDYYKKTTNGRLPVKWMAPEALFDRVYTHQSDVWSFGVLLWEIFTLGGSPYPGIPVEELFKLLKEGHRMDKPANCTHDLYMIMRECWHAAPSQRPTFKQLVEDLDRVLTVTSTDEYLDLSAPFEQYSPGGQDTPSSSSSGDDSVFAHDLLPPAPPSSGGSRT
T6 sequence (Q9UM73 19-1620): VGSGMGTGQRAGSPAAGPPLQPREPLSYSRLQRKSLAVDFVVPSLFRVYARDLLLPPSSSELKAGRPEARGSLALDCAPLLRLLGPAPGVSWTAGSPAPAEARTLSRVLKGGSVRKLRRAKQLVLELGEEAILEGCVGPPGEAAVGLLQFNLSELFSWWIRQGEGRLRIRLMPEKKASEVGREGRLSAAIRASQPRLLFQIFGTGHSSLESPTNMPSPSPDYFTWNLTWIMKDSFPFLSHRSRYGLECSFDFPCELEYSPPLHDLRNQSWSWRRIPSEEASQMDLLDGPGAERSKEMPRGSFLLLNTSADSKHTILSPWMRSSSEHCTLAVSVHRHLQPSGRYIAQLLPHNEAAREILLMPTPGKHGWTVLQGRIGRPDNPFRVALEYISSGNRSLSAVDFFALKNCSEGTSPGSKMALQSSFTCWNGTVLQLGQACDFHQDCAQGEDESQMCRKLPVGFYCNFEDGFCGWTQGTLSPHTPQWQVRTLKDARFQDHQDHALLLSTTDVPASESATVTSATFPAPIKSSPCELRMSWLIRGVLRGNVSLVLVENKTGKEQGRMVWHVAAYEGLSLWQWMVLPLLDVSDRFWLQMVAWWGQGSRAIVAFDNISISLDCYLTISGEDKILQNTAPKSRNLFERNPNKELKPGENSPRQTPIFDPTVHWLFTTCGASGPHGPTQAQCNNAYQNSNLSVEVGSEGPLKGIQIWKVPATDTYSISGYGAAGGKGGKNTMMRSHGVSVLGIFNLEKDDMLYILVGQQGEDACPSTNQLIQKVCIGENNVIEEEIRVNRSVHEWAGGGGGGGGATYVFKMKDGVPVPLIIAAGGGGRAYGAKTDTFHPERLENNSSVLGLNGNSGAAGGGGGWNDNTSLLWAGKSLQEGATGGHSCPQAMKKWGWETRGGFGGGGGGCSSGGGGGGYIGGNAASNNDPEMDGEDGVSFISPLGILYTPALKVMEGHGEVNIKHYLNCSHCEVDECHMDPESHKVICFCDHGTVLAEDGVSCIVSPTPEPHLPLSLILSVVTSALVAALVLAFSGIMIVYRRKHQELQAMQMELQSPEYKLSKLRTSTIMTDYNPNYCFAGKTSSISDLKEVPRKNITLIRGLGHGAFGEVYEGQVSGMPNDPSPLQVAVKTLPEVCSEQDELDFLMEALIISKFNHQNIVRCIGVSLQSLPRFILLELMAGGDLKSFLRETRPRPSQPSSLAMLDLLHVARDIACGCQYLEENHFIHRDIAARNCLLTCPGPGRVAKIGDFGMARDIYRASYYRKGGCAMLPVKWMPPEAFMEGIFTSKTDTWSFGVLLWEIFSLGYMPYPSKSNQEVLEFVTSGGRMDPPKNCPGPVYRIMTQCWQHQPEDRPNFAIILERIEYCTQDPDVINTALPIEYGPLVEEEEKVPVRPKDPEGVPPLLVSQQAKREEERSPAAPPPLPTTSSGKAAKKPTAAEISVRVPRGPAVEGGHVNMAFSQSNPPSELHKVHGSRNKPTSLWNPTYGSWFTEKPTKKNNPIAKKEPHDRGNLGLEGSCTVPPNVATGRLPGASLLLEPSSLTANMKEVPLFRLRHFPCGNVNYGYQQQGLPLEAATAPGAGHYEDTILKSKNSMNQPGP

Structure (SMILES)	inhibition at 10 µM (panel of 203 kinases [1]) [%]	inhibition at 10 µM (panel of 203 kinases [2]) [%]	inhibition at 10 µM (panel of 203 kinases [3]) [%]	inhibition at 10 µM (panel of 203 kinases [4]) [%]	inhibition at 10 µM (panel of 203 kinases [5]) [%]	inhibition at 10 µM (panel of 203 kinases [6]) [%]
CN1CCN(c2ccc(Nc3nccc(-c4cnn5ncccc45)n3)cc2C#N)CC1 [Compound 1]	0	0	0	0	0	99.1
COc1ccc(Nc2nccc(-c3cnn4ncccc34)n2)cc1 [Compound 2]	0	0	67.6	0	0	94.8
Cc1ccc(O)cc1Nc1ccnc(Nc2cccc(C(N)=O)c2)n1 [Compound 3]	0	0	0	94.8	100	0
Cc1ccc(O)cc1N(C)c1ccnc(Nc2cccc(S(N)(=O)=O)c2)n1 [Compound 4]	0	0	65.4	100	100	0
Fc1cccc(COc2ccc(Nc3ncnc4c3CN(CCN3CCOCC3)CC4)cc2Cl)c1 [Compound 6]	0	0	96.3	0	0	0
COc1cc(Nc2nccc(-c3sc(N)nc3-c3cccc(NC(=O)c4c(F)cccc4F)c3)n2)cc(OC)c1OC [Compound 7]	0	0	100	100	99.4	0
C[C@@H](Oc1cc(-c2cnc3ccccn23)sc1C(N)=O)c1ccccc1Cl [Compound 8]	0	91.2	0	0	0	0
c1ccc(COc2cccc(-c3ccnc4[nH]ccc34)c2)cc1 [Compound 9]	0	0	0	0	0	0
Clc1ccc(Nc2ncc(-c3ccccc3)s2)cc1 [Compound 10]	0	0	0	0	0	0
Nc1ncc2c(-c3ccncc3)c[nH]c2n1 [Compound 11]	0	0	0	0	62.6	0
